Drawing on PubChem BioAssay (NCI), this text covers TGI and GI50 for 9 compounds.

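Following 48 hours of exposure in 96-well plates, responses at five concentrations were used to interpolate endpoints linearly. At the GI50, growth is halved. At the TGI there is no net growth.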

What all share (assay): NCI-60 cell line screen, 48 h
Test [1] deals with ACHN renal.
Test [2] concerns SK-MEL-2 melanoma.
Test [3] relates to PC-3 prostate.
Test [4] relates to OVCAR-5 ovarian.
The subject of test [5] is SF-295 CNS.
The test system of test [6] is NCI/ADR-RES ovarian.
In test [7] the test system is DU-145 prostate.
The test system of test [8] is HT29 colon.
The test system of test [9] is RXF 393 renal.
The test system of test [10] is UACC-62 melanoma.

For the compound `O=S1(=O)CS(=O)(=O)OCCCO1`, the TGI in test [1], in [2], in test [3], in [4], in [5] and in test [6] was over 100 µM in each case. Further, the TGI in test [7], in test [8], in test [9] and in test [10] was over 100 µM throughout.
For the compound `COc1ccc2c(=O)c3cc([N+](=O)[O-])ccc3n(C)c2c1`, the TGI in test [1], in test [2], in [3], in test [4], in [5] and in test [6] was over 100 µM in each case. Also, the TGI in [7], in test [9] and in [10] was over 100 µM in each case.
As to `Cc1nc(/N=C(\N)NC(=O)Nc2ccccc2Cl)sc1C`, the GI50 was 0.638 µM in test [1]; 0.571 µM in [2]; 0.659 µM in test [3]; 1.32 µM in test [4]; 0.363 µM in [5]; 0.271 µM in [6]. The GI50 in [7] is 0.621 µM; in test [8], 0.333 µM; in [9] it was 0.399 µM; in test [10], 0.488 µM. Besides, the TGI in [1] was 7.79 µM; in [2], 16.4 µM; in test [3], over 100 µM; in test [4] it was over 100 µM; in [5], 2.7 µM; in test [6], 3.28 µM. Also, the TGI is 5.85 µM in test [7], 5.32 µM in test [8], 2.11 µM in [9] and over 100 µM in test [10].
In the case of `CN(C)CCN=Cc1c2ccccc2c(=O)n2c1oc1ccccc12`, the GI50 is 2.63 µM in test [1]; 16.6 µM in [2]; 11.5 µM in test [3]; 15.7 µM in [4]; 2.89 µM in test [5]; 13.7 µM in [6]. Also, the GI50 is 2.97 µM in test [7], 4.56 µM in test [8], 12.7 µM in test [9] and 10.8 µM in test [10]. Besides, the TGI turned out to be 11.2 µM in test [1]; 48.2 µM in test [2]; 29.9 µM in test [3]; 30.5 µM in [4]; 9.71 µM in [5]; 32.6 µM in test [6]. Besides, the TGI in [7] is 14.5 µM; in test [8], 19.4 µM; in [9], 28.6 µM; in test [10], 23.6 µM.
Regarding `C=C1C(=O)O[C@@H]2C[C@@H]1CC[C@@]1(C)O[C@@H]1CC[C@@]1(C)O[C@@H]1CC[C@@]2(C)O`, the GI50 was 21.5 µM in [1]; 23 µM in test [2]; 34.9 µM in test [3]; 20.5 µM in [4]; 19.6 µM in [5]; 32.4 µM in test [6]. Moreover, the GI50 in test [7] was 30.3 µM; in test [8], 21 µM; in [9], 42.8 µM; in [10], 14.6 µM. Moreover, the TGI was 66.4 µM in test [1]; 75.2 µM in test [2]; over 100 µM in test [3]; 56.5 µM in test [4]; 60.6 µM in [5]; 78.3 µM in test [6]. In addition, the TGI in test [7] was over 100 µM; in test [8], 63.2 µM; in test [9] it was over 100 µM; in [10], 30.2 µM.
Turning to `NC(=O)C(NC=O)c1ccccc1` (centres undefined), the TGI in [1], in [3], in test [5], in test [6], in [7] and in test [8] was over 100 µM in each case. Besides, the TGI in test [9] and in test [10] was over 100 µM in each case.
Regarding `COc1ccc(C2=C(c3cc(OC)c(OC)c(OC)c3)C(=O)CC2)cc1`, the GI50 was 1.8 µM in test [1]; 0.971 µM in test [2]; 0.203 µM in [3]; 0.662 µM in test [4]; 0.0548 µM in test [5]; 0.0704 µM in test [6]. Moreover, the GI50 in test [7] was 0.294 µM; in [8], 0.0845 µM; in test [10], 0.0812 µM. Moreover, the TGI in test [1] was over 100 µM; in test [3] it was over 100 µM; in [4], over 100 µM; in test [5], over 20.5 µM; in [6], over 100 µM; in test [8], 15.3 µM. Besides, in [10], the TGI was over 100 µM.
As for `COc1ccc(/C=C/c2cc(N3CCOCC3)c3cc(F)c(F)cc3n2)cc1OC`, the GI50 in test [1] was 0.615 µM; in test [2], 2.39 µM; in test [3] it was 0.846 µM; in [4], 2.01 µM; in test [5], 0.653 µM; in test [6], 0.432 µM. In addition, the GI50 in test [7] was 1.58 µM; in [9], 1.36 µM; in test [10], 0.436 µM. Also, the TGI in [1] came to 12.4 µM; in test [2] it was 11.5 µM; in test [3] it was 14.4 µM; in test [4] it was 11.9 µM; in test [5] it was 14.9 µM; in [6], 3.03 µM. In addition, the values for the TGI in test [7], in [9] and in test [10] were 11.8 µM, 10.8 µM and 2.24 µM, respectively.
For `COc1cc(C2CC(c3cc(C)ccc3C)=NN2c2ccc(S(=O)(=O)NC(=O)NCc3ccccc3)cc2)cc(OC)c1OC` (centres undefined), the GI50 in [1] is 3.47 µM; in test [2], 2.81 µM; in [3] it was 2.54 µM; in [4], 4.19 µM; in test [6], 4.18 µM; in [7], 6.05 µM. For the same compound, the GI50 is 3.87 µM in test [8], 2.9 µM in [9] and 1.98 µM in test [10]. The TGI in test [1] was found to be 13.2 µM; in test [2], 6.25 µM; in test [3] it was 12.3 µM; in [4] it was 26.1 µM; in test [6], 31.7 µM; in test [7] it was 30.8 µM. Also, the TGI in test [8] amounted to 47.7 µM; in test [9], 8.17 µM; in [10] it was 4.48 µM.
